Assay results as given in patent US10208019B2, “GLP-1 receptor agonists and uses thereof” (Pfizer Inc., priority 2016, dated 2019).
Read-outs that look alike come from different tables or passages of the source.

Target: human GLP-1R (Homo sapiens, UniProt P43220, G168S)
Assay: CHO GLP-1R Clone H6—Assay 1: HTRF cAMP cell-based functional agonist assay (high GLP-1R density)
Conditions: for EC50: CHO GLP-1R Clone H6, cAMP HTRF, geometric mean; for Emax: read-out: Assay 1 Emax (%), CHO GLP-1R Clone H6
[1] = relative to saturating concentration of full agonist GLP-1 (1 μM), arithmetic mean

Sequence of human GLP-1R (P43220 24-463 G168S limits assumed): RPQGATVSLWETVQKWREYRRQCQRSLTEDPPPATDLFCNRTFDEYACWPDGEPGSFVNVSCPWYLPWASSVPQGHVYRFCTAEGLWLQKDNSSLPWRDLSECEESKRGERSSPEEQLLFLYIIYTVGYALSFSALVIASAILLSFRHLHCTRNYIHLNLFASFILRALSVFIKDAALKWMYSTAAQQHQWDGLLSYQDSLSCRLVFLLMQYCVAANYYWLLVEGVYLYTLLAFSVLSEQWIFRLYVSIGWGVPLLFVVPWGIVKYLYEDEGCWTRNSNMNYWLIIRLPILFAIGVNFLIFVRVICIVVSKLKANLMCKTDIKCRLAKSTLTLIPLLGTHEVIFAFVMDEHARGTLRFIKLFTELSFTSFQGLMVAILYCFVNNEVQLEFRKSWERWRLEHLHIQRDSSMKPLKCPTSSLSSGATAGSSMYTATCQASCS

Row | EC50 (read-out: Assay 1 EC50) [nM] | Emax [1] [%] | EC50 (Assay 1 EC50 (nM)) [nM] | Assay 1 Emax (%) (CHO GLP-1R Clone H6, relative to saturating concentration of full agonist GLP-1 (1 μM), arithmetic mean) | Structure (SMILES)
1 | 320 | 79 | – | – | Cc1cc(Cn2c(CN3CCC(c4cccc(OCc5ccc(Cl)cc5F)n4)CC3)nc3ccc(C(=O)O)cc32)on1 [Example 11A-47, 2-[(4-{6-[(4-chloro-2-fluorobenzyl)oxy]pyridin-2-yl}piperidin-1-yl]methyl]-1-[(3-methyl-1,2-oxazol-5-yl)methyl]-1H-benzimidazole-6-carboxylic acid]
2 | 440 | 86 | – | – | CC(c1nncn1C)n1c(CN2CCC(c3cccc(OCc4ccc(Cl)cc4F)n3)CC2)nc2ccc(C(=O)O)cc21 (stereo not shown) [Example 11A-52, 2-[(4-{6-[(4-chloro-2-fluorobenzyl)oxy]pyridin-2-yl}piperidin-1-yl)methyl]-1-[1-(4-methyl-4H-1,2,4-triazol-3-yl)ethyl]-1H-benzimidazole-6-carboxylic acid]
3 | 3100 | 51 | – | – | O=C(O)c1ccc2nc(CN3CCC(c4cccc(OCc5ccc(Cl)cc5F)n4)CC3)n(CCC3CCOCC3)c2c1 [Example 11A-65, 2-[(4-{6-[(4-chloro-2-fluorobenzyl)oxy]pyridin-2-yl}piperidin-1-yl)methyl]-1-[2-(tetrahydro-2H-pyran-4-yl)ethyl]-1H-benzimidazole-6-carboxylic acid]
4 | 210 | 77 | – | – | Cn1cc(CCn2c(CN3CCC(c4cccc(OCc5ccc(Cl)cc5F)n4)CC3)nc3ccc(C(=O)O)cc32)nn1 [Example 11A-44, 2-[(4-{6-[(4-chloro-2-fluorobenzyl)oxy]pyridin-2-yl}piperidin-1-yl)methyl]-1-[2-(1-methyl-1H-1,2,3-triazol-4-yl)ethyl]-1H-benzimidazole-6-carboxylic acid]
5 | > 20000 | – | – | – | CN1CCCC1CCn1c(CN2CCC(c3cccc(OCc4ccc(Cl)cc4F)n3)CC2)nc2ccc(C(=O)O)cc21 (stereo not shown) [Example 11A-09, 2-[(4-{6-[(4-chloro-2-fluorobenzyl)oxy]pyridin-2-yl}piperidin-1-yl)methyl]-1-[2-(1-methylpyrrolidin-2-yl)ethyl]-1H-benzimidazole-6-carboxylic acid]
6 | 150 | 80 | – | – | COCCn1c(CN2CCC(c3cccc(OCc4ccc(C#N)c(C)c4)n3)CC2)nc2ccc(C(=O)O)cc21 [Example 8A-02, 2-((4-(6-((4-cyano-3-methylbenzyl)oxy)pyridin-2-yl)piperidin-1-yl)methyl)-1-(2-methoxyethyl)-1H-benzo[d]imidazole-6-carboxylic acid]
7 | 2900 | 89 | – | – | Cn1c(CN2CCC(c3cccc(OCc4c(F)cccc4F)n3)CC2)nc2ccc(C(=O)O)cc21 [Example 9A-04, 2-[(4-{6-[(2,6-difluorobenzyl)oxy]pyridin-2-yl}piperidin-1-yl)methyl]-1-methyl-1H-benzimidazole-6-carboxylic acid]
8 | 750 | 76 | – | – | COCCn1c(CN2CCN(c3cccc(OCc4ccc(Cl)cc4F)n3)C(C)(C)C2)nc2ccc(C(=O)O)cc21 [Example 1A-12, 2-[(4-{6-[(4-chloro-2-fluorobenzyl)oxy]pyridin-2-yl}-3,3-dimethylpiperazin-1-yl)methyl]-1-(2-methoxyethyl)-1H-benzimidazole-6-carboxylic acid]

More lines, now with the values behind:

Row | Structure (SMILES) | EC50 (read-out: Assay 1 EC50) [nM] | Emax [1] [%] | EC50 (Assay 1 EC50 (nM)) [nM] | Assay 1 Emax (%) (CHO GLP-1R Clone H6, relative to saturating concentration of full agonist GLP-1 (1 μM), arithmetic mean)
9 | C[C@H]1CN(c2cccc(OCc3ccc(C#N)cc3)n2)CCN1Cc1nc2ccc(C(=O)O)cc2n1C[C@@H]1CCO1 [Example 10A-49, 2-{[(2S)-4-{6-[(4-cyanobenzyl)oxy]pyridin-2-yl}-2-methylpiperazin-1-yl]methyl}-1-[(2S)-oxetan-2-ylmethyl]-1H-benzimidazole-6-carboxylic acid] | 0.56 | 73 | – | –
10 | O=C(O)c1ccc2nc(CN3CCC(c4cccc(OCc5ccc(Cl)cc5F)n4)CC3)n(CCN3CCOCC3)c2c1 [Example 11A-50, 2-[(4-{6-[(4-chloro-2-fluorobenzyl)oxy]pyridin-2-yl}piperidin-1-yl)methyl]-1-[2-(morpholin-4-yl)ethyl]-1H-benzimidazole-6-carboxylic acid] | 380 | 75 | – | –
11 | CN1CCCC(Cn2c(CN3CCC(c4cccc(OCc5ccc(Cl)cc5F)n4)CC3)nc3ccc(C(=O)O)cc32)C1 (stereo not shown) [Example 11A-04, 2-[(4-{6-[(4-chloro-2-fluorobenzyl)oxy]pyridin-2-yl}piperidin-1-yl)methyl]-1-[(1-methylpiperidin-3-yl)methyl]-1H-benzimidazole-6-carboxylic acid] | > 19000 | 100 | – | –
12 | O=C(O)c1cnc2nc(CN3CCC(c4cccc(OCc5ccc(Cl)cc5F)n4)CC3)n(CC(F)(F)F)c2c1 [Example 2A-16, 2-[(4-{6-[(4-chloro-2-fluorobenzyl)oxy]pyridin-2-yl}piperidin-1-yl)methyl]-1-(2,2,2-trifluoroethyl)-1H-imidazo[4,5-b]pyridine-6-carboxylic acid] | 370 | 75 | – | –
13 | CCc1nc(Cn2c(CN3CCC(c4cccc(OCc5ccc(Cl)cc5F)n4)CC3)nc3ccc(C(=O)O)cc32)no1 [Example 10A-51] | 390 | 72 | – | –
14 | CN1CCCCC1Cn1c(CN2CCC(c3cccc(OCc4ccc(Cl)cc4F)n3)CC2)nc2ccc(C(=O)O)cc21 (stereo not shown) [Example 11A-10, 2-[(4-{6-[(4-chloro-2-fluorobenzyl)oxy]pyridin-2-yl}piperidin-1-yl)methyl]-1-[(1-methylpiperidin-2-yl)methyl]-1H-benzimidazole-6-carboxylic acid] | > 20000 | – | – | –
15 | COCCn1c(CN2CCC(c3cccc(OCc4ccc(Cl)cc4F)n3)CC2C)nc2ccc(C(=O)O)cc21 (single isomer, unassigned) [Example 13A-02, trans 2-{[4-{6-[(4-Chloro-2-fluorobenzyl)oxy]pyridin-2-yl}-2-methylpiperidin-1-yl]methyl}-1-(2-methoxyethyl)-1H-benzimidazole-6-carboxylic acid] | – | – | 420 | 81
16 | Cn1cnc(CCn2c(CN3CCC(c4cccc(OCc5ccc(Cl)cc5F)n4)CC3)nc3ccc(C(=O)O)cc32)c1 [Example 11A-01, 2-[(4-{6-[(4-chloro-2-fluorobenzyl)oxy]pyridin-2-yl}piperidin-1-yl)methyl]-1-[2-(1-methyl-1H-imidazol-4-yl)ethyl]-1H-benzimidazole-6-carboxylic acid] | > 10000 | 85 | – | –
17 | CN1CC(Cn2c(CN3CCC(c4cccc(OCc5ccc(Cl)cc5F)n4)CC3)nc3ccc(C(=O)O)cc32)CC1=O (stereo not shown) [Example 11A-42, 2-[(4-{6-[(4-chloro-2-fluorobenzyl)oxy]pyridin-2-yl}piperidin-1-yl]methyl]-1-[(1-methyl-5-oxopyrrolidin-3-yl)methyl]-1H-benzimidazole-6-carboxyl ic acid] | 190 | – | – | –
18 | O=C(O)c1ccc2nc(CN3CCC(c4cccc(OCc5ccc(Cl)cc5F)n4)CC3)n(CCO)c2c1 [Example 10A-50] | 290 | 64 | – | –
19 | COCCn1c(CN2CCN(c3cccc(OCc4ccc(Cl)cc4F)n3)C[C@@H]2C2CC2)nc2ccc(C(=O)O)cc21 [Example 12A-04, 2-{[(2S)-4-{6-[(4-chloro-2-fluorobenzyl)oxy]pyridin-2-yl}-2-cyclopropylpiperazin-1-yl]methyl}-1-(2-methoxyethyl)-1H-benzimidazole-6-carboxylic acid] | 250 | 64 | – | –
20 | CCc1noc(Cn2c(CN3CCC(c4cccc(OCc5ccc(Cl)cc5F)n4)CC3)nc3ccc(C(=O)O)cc32)n1 [Example 10A-52] | 1300 | 79 | – | –
